US6410735B1, “1-(4-arylpiperazin-1-y1)-ω-[N-(α,ω-dicarboximido)]-alkanes useful as uro-selective α1-adrenoceptor blockers” (Ranbaxy Laboratories Limited, priority 1997, dated 2002)
Read-outs that look alike come from different tables or passages of the source.

Key:
α1D-adrenoceptor (aorta) = target: T1, α1D-adrenoceptor (aorta) (Rattus norvegicus, UniProt P23944); test: In vitro functional assay, norepinephrine-induced contraction of isolated aorta; format: cell-based
T1 construct: Aorta, prostate and spleen tissues were isolated from urethane anaesthetized (1.5 gm/kg) male wistar rats; from tissue; host or cells: isolated aorta of male Wistar rats
T1 sequence (P23944 1-561): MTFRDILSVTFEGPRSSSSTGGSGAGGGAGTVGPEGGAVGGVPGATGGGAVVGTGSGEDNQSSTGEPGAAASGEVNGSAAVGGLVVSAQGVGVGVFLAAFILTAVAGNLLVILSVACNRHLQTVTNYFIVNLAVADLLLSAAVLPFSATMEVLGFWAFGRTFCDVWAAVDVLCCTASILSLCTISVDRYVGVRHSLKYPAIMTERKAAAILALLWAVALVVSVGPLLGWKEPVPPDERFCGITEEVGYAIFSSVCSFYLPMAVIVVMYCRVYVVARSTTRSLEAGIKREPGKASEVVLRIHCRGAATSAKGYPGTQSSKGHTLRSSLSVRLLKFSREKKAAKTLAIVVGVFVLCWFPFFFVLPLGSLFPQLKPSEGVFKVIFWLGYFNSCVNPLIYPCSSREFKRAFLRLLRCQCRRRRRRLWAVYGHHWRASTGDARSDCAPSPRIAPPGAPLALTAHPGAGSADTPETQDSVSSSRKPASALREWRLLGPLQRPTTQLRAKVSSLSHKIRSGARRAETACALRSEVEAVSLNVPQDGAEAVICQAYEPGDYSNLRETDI
Description: (§1) In order to study selectivity of action of the present compounds towards different α-adrenoceptor subtypes, the ability of these compounds to antagonize α1-adrenoceptor agonist induced contractile response of aorta (α1D), prostate (α1A) and spleen (α1B) was studied. Aorta, prostate and spleen tissues were isolated from urethane anaesthetized (1.5 gm/kg) male wistar rats. Isolated tissues were mounted in organ bath containing Krebs Henseleit buffer of the following composition (mM): NaCl 118; KCl 4.7; CaCl2 2.5; MgSO4·H2O 1.2; NaHCO3 25; KH2PO4 1.2; glucose 11.5. Buffer was maintained at 37° C. and aerated with a mixture of 95% O2 and 5% CO2. A resting tension of 2 g (aorta) or 1 g (spleen and prostate) was applied to tissues. Contractile response was monitored using a force displacement transducer and recorded on chart recorders. Tissues were allowed to equilibrate for 2 hours. At the end of equilibration period, concentration response curves to norepinephrine (aorta) and phenylephrine (spleen and prostate) were obtained in the absence and presence of the tested compound (at concentrations of 0.1, 1 and 10 μM). Antagonist affinity was calculated and expressed as PKB values in Table 1.

α1B-adrenoceptor = target: T2, α1B-adrenoceptor (Rattus norvegicus, UniProt P15823); test: Receptor binding assay, [3H]prazosin, rat liver membranes
T2 construct: from tissue; host or cells: rat liver membranes
T2 sequence (P15823 1-515): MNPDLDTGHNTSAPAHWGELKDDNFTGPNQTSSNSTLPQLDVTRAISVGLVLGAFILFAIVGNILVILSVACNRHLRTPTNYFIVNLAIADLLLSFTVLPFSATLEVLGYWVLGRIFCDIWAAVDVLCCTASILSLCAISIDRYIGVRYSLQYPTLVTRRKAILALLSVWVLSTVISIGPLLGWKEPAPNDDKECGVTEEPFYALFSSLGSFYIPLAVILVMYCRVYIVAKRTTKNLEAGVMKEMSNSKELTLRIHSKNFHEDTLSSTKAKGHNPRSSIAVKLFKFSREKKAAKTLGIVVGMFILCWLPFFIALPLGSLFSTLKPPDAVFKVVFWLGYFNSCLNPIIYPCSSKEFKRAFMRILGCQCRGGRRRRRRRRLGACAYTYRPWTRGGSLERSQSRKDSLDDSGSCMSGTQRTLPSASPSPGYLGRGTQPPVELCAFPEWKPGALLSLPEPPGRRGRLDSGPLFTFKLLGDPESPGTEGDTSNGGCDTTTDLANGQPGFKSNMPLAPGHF
Method: (§2) Receptor binding assays, (RBA's) were performed for native α1-adrenoceptors. Rat submaxillary and rat liver membrane preparations were used to assess the affinity for α1A and α1B subtypes, respectively. Aliquots of membrane protein ([…]) were incubated in a final volume of […] assay buffer (50 mM Tris, 0.5 mM EDTA at pH 7.4) with 0.5 nM [^3H] prazosin for 60 mins at 28 ° C. Reaction was stopped by rapid filtration on Millipore filters. Filters were dried and bound radioactivity counted. Non-specific binding was determined in the presence of 0.3 mM prazosin.

[1] = target: T3, α1A-adrenoceptor (prostate) (Rattus norvegicus, UniProt P43140); test: In vitro functional assay, phenylephrine-induced contraction of isolated prostate; format: cell-based
T3 construct: Aorta, prostate and spleen tissues were isolated from urethane anaesthetized (1.5 gm/kg) male wistar rats; from tissue; host or cells: isolated prostate of male Wistar rats
T3 sequence (P43140 1-466): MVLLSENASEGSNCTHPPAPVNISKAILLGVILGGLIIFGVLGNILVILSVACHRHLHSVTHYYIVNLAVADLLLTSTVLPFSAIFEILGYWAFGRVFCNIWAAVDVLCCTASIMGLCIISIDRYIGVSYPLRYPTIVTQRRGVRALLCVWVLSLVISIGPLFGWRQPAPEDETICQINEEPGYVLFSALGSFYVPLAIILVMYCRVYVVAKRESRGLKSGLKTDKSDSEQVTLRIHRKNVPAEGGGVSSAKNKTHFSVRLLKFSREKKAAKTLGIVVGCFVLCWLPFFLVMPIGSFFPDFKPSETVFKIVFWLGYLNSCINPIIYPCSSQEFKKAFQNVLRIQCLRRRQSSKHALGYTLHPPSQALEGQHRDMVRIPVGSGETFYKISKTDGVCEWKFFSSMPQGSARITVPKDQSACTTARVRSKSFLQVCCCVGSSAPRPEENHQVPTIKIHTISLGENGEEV
Description: as §1

α1A-adrenoceptor = target: T4, α1A-adrenoceptor (Rattus norvegicus, UniProt P43140); test: Receptor binding assay, [3H]prazosin, rat submaxillary membranes
T4 construct: from tissue; host or cells: rat submaxillary gland membranes
T4 sequence (P43140 1-466): T3 sequence (P43140 1-466)
Method: as §2

[2] = target: T5, α1B-adrenoceptor (spleen) (Rattus norvegicus, UniProt P15823); test: In vitro functional assay, phenylephrine-induced contraction of isolated spleen; format: cell-based
T5 construct: Aorta, prostate and spleen tissues were isolated from urethane anaesthetized (1.5 gm/kg) male wistar rats; from tissue; host or cells: isolated spleen of male Wistar rats
T5 sequence (P15823 1-515): T2 sequence (P15823 1-515)
Description: as §1

[3] = rat aorta, norepinephrine, read-out: In Vitro Functional Assay (pKB) α1D (converted)
[4] = rat liver membranes, 0.5 nM [3H]prazosin, read-out: RBA (Ki nM) α1B
[5] = rat submaxillary membranes, 0.5 nM [3H]prazosin, read-out: RBA (Ki nM) α1A
[6] = rat prostate, phenylephrine, read-out: In Vitro Functional Assay (pKB) α1A (converted)
[7] = rat spleen, phenylephrine, read-out: In Vitro Functional Assay (pKB) α1B (converted)

Row | Structure (SMILES) | Kb (α1D-adrenoceptor (aorta); [3]) | Ki (α1B-adrenoceptor; [4]) | Kb [1] | Ki (α1A-adrenoceptor; [5]) | Kb [2] | Kb (α1D-adrenoceptor (aorta)) | Kb [1, 6] | Kb [2, 7] | Ki (α1A-adrenoceptor) | Ki (α1B-adrenoceptor)
1 | O=C1CCC(=O)N1CCCN1CCN(c2ccc(F)cc2)CC1 [Compound 1, 1-[4-(4-Fluorophenyl)piperazin-1-yl]-3-(2,5-dioxopyrrolidin-1-yl)propane] | 158 nM | 1000 nM | 79.4 nM | > 2500 nM | 100 nM | – | – | – | – | –
2 | O=C1CCC(=O)N1CCCN1CCN(c2cccc(C(F)(F)F)c2)CC1 [Compound 3, 1-[4-(3-Trifluoromethylphenyl)piperazin-1-yl]-3-(2,5-dioxopyrrolidin-1-yl)propane] | 10000 nM | 1000 nM | – | 1500 nM | 63.1 nM | – | – | – | – | –
3 | O=C1CCC(=O)N1CCCN1CCN(c2ccccn2)CC1 [Compound 4, 1-[4-(2-Pyridyl)piperazin-1-yl]-3-(2,5-dioxopyrrolidin-1-yl)propane] | 2510 nM | 2100 nM | – | 1660 nM | – | – | – | – | – | –
4 | O=C1CCC(=O)N1CCCN1CCN(c2cccc(Cl)c2)CC1 [Compound 5, 1-[4-(3-Chlorophenyl)piperazin-1-yl]-3-(2,5-dioxopyrrolidin-1-yl)propane] | – | 175 nM | – | 106 nM | – | 100 nM | 5010 nM | 5010 nM | – | –
5 | O=C1CCC(=O)N1CCCN1CCN(c2ncccn2)CC1 [Compound 6, 1-[4-(2-Pyrimidyl)piperazin-1-yl]-3-(2,5-dioxopyrrolidin-1-yl)propane] | 316 nM | > 2500 nM | – | 1140 nM | – | – | 20000 nM | 5010 nM | – | –
6 | Cc1ccc(N2CCN(CCCN3C(=O)CCC3=O)CC2)cc1C [Compound 7, 1-[4-(3,4-Dimethylphenyl)piperazin-1-yl]-3-(2,5-dioxopyrrolidin-1-yl)propane] | 316 nM | 282 nM | – | 450 nM | – | – | 398 nM | 200 nM | – | –
7 | O=C1CCC(=O)N1CCCN1CCN(c2ccccc2)CC1 [Compound 8, 1-[4-(Phenylpiperazin)-1-yl]-3-(2,5-dioxopyrrolidin-1-yl)propane] | 251 nM | 590 nM | 31.6 nM | – | – | – | – | – | 57 nM | –
8 | COc1ccccc1N1CCN(CCN2C(=O)CCC2=O)CC1 [Compound 10, 1-[4-(2-Methoxyphenyl)piperazin-1-yl]-2-(2,5-dioxopyrrolidin-1-yl)ethane] | 126 nM | 2350 nM | – | 1600 nM | – | – | 126 nM | 200 nM | – | –
9 | COc1cccc(N2CCN(CCCN3C(=O)CCC3=O)CC2)c1 [Compound 11, 1-[4-(3-Methoxyphenyl)piperazin-1-yl]-3-(2,5-dioxopyrrolidin-1-yl)propane] | – | > 2500 nM | – | > 2500 nM | – | – | – | – | – | –
10 | COc1ccc(N2CCN(CCCN3C(=O)CCC3=O)CC2)cc1 [Compound 12, 1-[4-(4-Methoxyphenyl)piperazin-1yl]-3-(2,5-dioxopyrrolidin-1yl)propane] | – | > 2500 nM | – | > 2500 nM | – | – | – | – | – | –
11 | O=C1CCCC(=O)N1CCCN1CCN(c2ccc(F)cc2)CC1 [Compound 14, 1-[4-(4-Fluorophenyl)piperazin-1-yl]-3-(2,6-dioxopiperidin-1yl)propane] | 79.4 nM | 192 nM | – | 67 nM | – | – | 3.98 nM | 39.8 nM | – | –
12 | O=C1CCCC(=O)N1CCCN1CCN(c2ccc(Cl)cc2)CC1 [Compound 15, 1-[4-(4-Chlorophenyl)piperazin-1-yl]-3-(2,6-dioxopiperidin-1yl)propane] | 631 nM | 201 nM | – | 520 nM | – | – | 200 nM | 1000 nM | – | –
13 | O=C1CCCC(=O)N1CCCN1CCN(c2cccc(C(F)(F)F)c2)CC1 [Compound 16, 1-[4-(3-Trifluoromethylphenyl)piperazin-1-yl]-3-(2,6-dioxopiperidin-1-yl)propane] | 126 nM | 765 nM | – | 345 nM | – | – | 316 nM | – | – | –
14 | O=C1CCCC(=O)N1CCCN1CCN(c2ccccn2)CC1 [Compound 19, 1-[4-(2-Pyridyl)piperazin-1-yl)-3-(2,6-dioxopiperidin-1-yl)propane] | 200 nM | > 2500 nM | – | 164 nM | – | – | 398 nM | – | – | –
15 | O=C1CCCC(=O)N1CCCN1CCN(c2cccc(Cl)c2)CC1 [Compound 20, 1-[4-(3-Chlorophenyl)piperazin-1-yl]-3-(2,6-dioxopiperidin-1-yl)propane] | 25.1 nM | 113 nM | – | 22 nM | – | – | 31.6 nM | – | – | –
16 | O=C1CCCC(=O)N1CCCN1CCN(c2ncccn2)CC1 [Compound 22, 1-[4-(2-Pyrimidyl)piperazin-1-yl]-3-(2,6-dioxopiperidin-1-yl)propane] | 100 nM | > 2500 nM | – | > 2500 nM | – | – | 398 nM | – | – | –
17 | COc1cccc(N2CCN(CCCN3C(=O)CCCC3=O)CC2)c1 [Compound 23, 1-[4-(3-Methoxyphenyl)piperazin-1yl]-3-(2,6-dioxopiperidin-1-yl)propane] | – | 940 nM | – | 2170 nM | – | – | – | – | – | –
18 | COc1ccc(N2CCN(CCCN3C(=O)CCCC3=O)CC2)cc1 [Compound 24, 1-[4-(4-Methoxyphenyl)piperazin-1-yl]-3-(2,6-dioxopiperidin-1-yl)propane] | – | – | – | – | – | – | – | – | < 2500 nM | > 2500 nM
19 | COc1ccccc1N1CCN(CCCCN2C(=O)CCCC2=O)CC1 [Compound 25, 1-[4-(2-Methoxyphenyl)piperazin-1yl]-4-(2,6-dioxopiperidin-1yl)butane] | – | 7.5 nM | – | 1.6 nM | – | – | – | – | – | –
20 | COc1ccccc1N1CCN(CCCN2C(=O)CC(c3ccccc3)C2=O)CC1 (stereo not shown) [Compound 26, 1-[4-(2-Methoxyphenyl)piperazin-1yl]-3-[2,5-dioxo-3-phenyl-pyrolidin-1-yl]propane] | – | 600 nM | – | 30 nM | – | – | – | – | – | –
21 | O=C1CCC(=O)N1CCCN1CCC(c2ccccc2)CC1 [Compound 27, 1-[4-(Phenyl)piperidin-1-yl]-3-[2,5-dioxopyrolidin-1-yl]propane] | – | 2000 nM | – | 1300 nM | – | – | – | – | – | –
